Patent US8012975B2, “Antitumoral analogs of ET-743” (Pharma Mar, S.A., priority 2000, dated 2011)

What was measured:
MEL-28 = experiment: Cytotoxic activity (M) panel, Melanoma Mel-28; conditions: Homo sapiens, SK-MEL-28, read-out: CYTOTOXIC ACTIVITY (M) Mel-28
Hs746t = experiment: Cytotoxic activity (M) panel, Gastric Hs746t; conditions: Homo sapiens, read-out: CYTOTOXIC ACTIVITY (M) Hs746t
SW-694 = experiment: Cytotoxic activity (M) panel, Fibrosarcoma SW-694; conditions: read-out: CYTOTOXIC ACTIVITY (M) SW-694
FADU = experiment: Cytotoxic activity (M) panel, Pharnynx FADU; conditions: Homo sapiens, read-out: CYTOTOXIC ACTIVITY (M) FADU
CHSA = experiment: Cytotoxic activity (M) panel, Chondrosarcoma CHSA; conditions: read-out: CYTOTOXIC ACTIVITY (M) CHSA
SK-HEP-1 = experiment: Cytotoxic activity (M) panel, Liver SK-HEP-1; conditions: Homo sapiens, SK-HEP1, read-out: CYTOTOXIC ACTIVITY (M) SK-HEP-1
HT-29 = experiment: Cytotoxic activity (M) panel, Colon HT-29; conditions: Homo sapiens, HT-29, read-out: CYTOTOXIC ACTIVITY (M) HT-29
Y-79 = experiment: Cytotoxic activity (M) panel, Retinoblastoma Y-79; conditions: Homo sapiens, Y79, read-out: CYTOTOXIC ACTIVITY (M) Y-79
786-O = experiment: Cytotoxic activity (M) panel, Renal 786-O; conditions: Homo sapiens, 786-0, read-out: CYTOTOXIC ACTIVITY (M) 786-O
PANC-1 = experiment: Cytotoxic activity (M) panel, Pancreas PANC-1; conditions: Homo sapiens, PANC-1, read-out: CYTOTOXIC ACTIVITY (M) PANC-1
PC3 = experiment: Cytotoxic activity (M) panel, Prostate PC3; conditions: Homo sapiens, PC-3, read-out: CYTOTOXIC ACTIVITY (M) PC3
OSA-FH = experiment: Cytotoxic activity (M) panel, Osteosarcoma OSA-FH; conditions: read-out: CYTOTOXIC ACTIVITY (M) OSA-FH
A549 = experiment: Cytotoxic activity (M) panel, NSCL A549; conditions: Homo sapiens, A549, read-out: CYTOTOXIC ACTIVITY (M) A549
5637 = experiment: Cytotoxic activity (M) panel, Bladder 5637; conditions: read-out: CYTOTOXIC ACTIVITY (M) 5637
HL60 = experiment: cells; conditions: Homo sapiens, HL-60, read-out: CYTOTOXIC ACTIVITY (M) HL60, leukemias & lymphomas, ALL Promyelocytic leukemia, line HL60
RAMOS = experiment: cells; conditions: Homo sapiens, read-out: CYTOTOXIC ACTIVITY (M) RAMOS, leukemias & lymphomas, Lymphoma Burkitts B celll, line RAMOS
MC116 = experiment: Cytotoxic activity (M) panel, Lymphoma undifferentiated MC116; conditions: Homo sapiens, MC116, read-out: CYTOTOXIC ACTIVITY (M) MC116, leukemias & lymphomas, Lymphoma undifferentiated, line MC116
U-937 = experiment: Cytotoxic activity (M) panel, Lymphoma Histiocytic U-937; conditions: Homo sapiens, U-937, read-out: CYTOTOXIC ACTIVITY (M) U-937
Molt 3 = experiment: Cytotoxic activity (M) panel, Acute lymphoblastic Molt 3; conditions: Homo sapiens, MOLT-3, read-out: CYTOTOXIC ACTIVITY (M) Molt 3, leukemias & lymphomas, ALL Acute lymphoblastic, line Molt 3
H9 = experiment: cells; conditions: Homo sapiens, H9, read-out: CYTOTOXIC ACTIVITY (M) H9, leukemias & lymphomas, Lymphoma T-cell, line H9
K562 = experiment: cells; conditions: Homo sapiens, K562, read-out: CYTOTOXIC ACTIVITY (M) K562
Hut 78 = experiment: Cytotoxic activity (M) panel, Lymphoma Cutaneus T cell Hut 78; conditions: Homo sapiens, HuT78, read-out: CYTOTOXIC ACTIVITY (M) Hut 78, leukemias & lymphomas, Lymphoma Cutaneus T cell, line Hut 78
LNCAP = experiment: Cytotoxic activity (M) panel, Prostate LNCAP; conditions: Homo sapiens, read-out: CYTOTOXIC ACTIVITY (M) LNCAP
NCI-H187 = experiment: Cytotoxic activity (M) panel, SCL NCI-H187; conditions: Homo sapiens, NCI-H187, read-out: CYTOTOXIC ACTIVITY (M) NCI-H187
DU-145 = experiment: Cytotoxic activity (M) panel, Prostate DU-145; conditions: Homo sapiens, DU-145, read-out: CYTOTOXIC ACTIVITY (M) DU-145
SK-OV-3 = experiment: Cytotoxic activity (M) panel, Ovary SK-OV-3; conditions: Homo sapiens, SK-OV-3, read-out: CYTOTOXIC ACTIVITY (M) SK-OV-3
MX-1 = experiment: Cytotoxic activity (M) panel, Breast MX-1; conditions: Homo sapiens, MX1, read-out: CYTOTOXIC ACTIVITY (M) MX-1

Compound	IC50 (MEL-28) [M]	IC50 (Hs746t) [M]	IC50 (FADU) [M]	IC50 (CHSA) [M]	IC50 (SK-HEP-1) [M]	IC50 (HT-29) [M]	IC50 (Y-79) [M]	IC50 (786-O) [M]	IC50 (PANC-1) [M]	IC50 (PC3) [M]	IC50 (OSA-FH) [M]	IC50 (A549) [M]	IC50 5637 [M]	IC50 (HL60) [M]	IC50 (RAMOS) [M]	IC50 (MC116) [M]	IC50 (Molt 3) [M]	IC50 (H9) [M]	IC50 (K562) [M]	IC50 (Hut 78) [M]	further results
COc1c(C)cc2c(c1O)[C@@H]1C3Cc4c(OC(C)=O)c(C)c5c(c4[C@H](COC(=O)CCc4ccccc4)N3[C@@H](O)[C@H](C2)N1C)OCO5 (stereo partly shown) [drawing 235]	2.23e-08	2.95e-08	5.4e-11	1.55e-05	1.29e-09	8.99e-09	1.03e-08	9.23e-10	5.68e-10	7.71e-10	1.29e-09	8.22e-06	7.88e-10	–	–	–	–	–	–	–	IC50 (SW-694): 8.53e-06 M
CCCCCC(=O)NC[C@H]1c2c(c(OC(C)=O)c(C)c3c2OCO3)CC2[C@H]3c4c(cc(C)c(OC)c4O)C[C@@H]([C@H](O)N21)N3C (stereo partly shown) [drawing 230]	–	–	–	–	–	–	–	–	–	–	–	–	–	1.5e-08	1.1e-09	3.81e-09	3.87e-09	1.08e-08	6.89e-08	1.97e-09	IC50 (U-937): 1.08e-09 M
COc1c(C)cc2c(c1O)[C@@H]1C3Cc4c(OC(C)=O)c(C)c5c(c4[C@H](CNC(=O)[C@H](C)NC(=O)C(F)(F)F)N3[C@@H](O)[C@H](C2)N1C)OCO5 (stereo partly shown) [drawing 212]	3.17e-09	2.18e-09	1.58e-09	6.77e-09	6.01e-11	1.97e-08	7.36e-10	1.59e-09	4.17e-09	2.15e-09	1.39e-09	7.68e-06	3.42e-10	–	–	–	–	–	–	–	IC50 (LNCAP): 2.17e-10 M; IC50 (NCI-H187): 9.57e-10 M; IC50 (DU-145): 1.83e-07 M; IC50 (SK-OV-3): 1.02e-07 M
CCC(=O)NC[C@H]1c2c(c(OC(C)=O)c(C)c3c2OCO3)CC2[C@H]3c4c(cc(C)c(OC)c4O)C[C@@H]([C@H](O)N21)N3C (stereo partly shown) [drawing 231]	–	–	–	–	–	–	–	–	–	–	–	–	–	4.93e-10	–	1.04e-09	9.86e-10	1.2e-08	1.87e-08	–	–
COc1c(C)cc2c(c1O)[C@@H]1C3Cc4c(OC(C)=O)c(C)c5c(c4[C@H](CNC(=O)[C@H](C)NC(=O)Cc4ccccc4)N3[C@@H](O)[C@H](C2)N1C)OCO5 (stereo partly shown) [drawing 223]	–	–	–	–	–	–	–	–	–	–	–	–	–	1.23e-10	8.85e-10	1.41e-09	8.85e-10	1.14e-08	4.45e-08	1.06e-08	–
COc1c(C)cc2c(c1O)[C@@H]1C3Cc4c(OC(C)=O)c(C)c5c(c4[C@H](CNC(=O)[C@H](C)NC(=O)CCc4ccccc4)N3[C@@H](O)[C@H](C2)N1C)OCO5 (stereo partly shown) [drawing 222]	–	–	–	–	–	–	–	–	–	–	–	–	–	5.92e-09	5.26e-11 to 1.1e-10	–	7.53e-12	4.48e-09	1.09e-08	9.9e-10	IC50 (U-937): 5.15e-10 M
CCCC(=O)OC[C@H]1c2c(c(OC(C)=O)c(C)c3c2OCO3)CC2[C@H]3c4c(cc(C)c(OC)c4O)C[C@@H]([C@H](O)N21)N3C (stereo partly shown) [drawing 240]	–	–	–	–	–	–	–	–	–	–	–	–	–	–	9.09e-09	1.51e-08	4.63e-08	6.76e-08	2.11e-08	2.06e-08	IC50 (U-937): 1.03e-08 M
CCC(=O)N[C@@H](C)C(=O)NC[C@H]1c2c(c(OC(C)=O)c(C)c3c2OCO3)CC2[C@H]3c4c(cc(C)c(OC)c4O)C[C@@H]([C@H](O)N21)N3C (stereo partly shown) [drawing 228]	1.42e-08	8.15e-09	4.38e-08	2.91e-08	6.21e-09	–	7.45e-10	1.54e-08	8.61e-09	–	1.15e-08	–	1.17e-09	–	–	–	–	–	–	–	IC50 (LNCAP): 1.77e-08 M; IC50 (MX-1): 1.92e-09 M; IC50 (NCI-H187): 9.89e-11 M
CCCC(=O)OC[C@H]1c2c(c(OC(C)=O)c(C)c3c2OCO3)CC2[C@H]3c4c(cc(C)c(OC)c4O)C[C@@H]([C@H](O)N21)N3C (stereo partly shown) [drawing 236]	1.25e-08	7.05e-07	2.47e-08	2.95e-08	6.12e-08	1.34e-08	2.64e-09	1.13e-08	1.28e-08	6.18e-10	5.01e-08	8.49e-09	3.02e-08	–	–	–	–	–	–	–	IC50 (LNCAP): 3.29e-07 M; IC50 (MX-1): 4.75e-08 M; IC50 (NCI-H187): 2.33e-10 M; IC50 (DU-145): 1.17e-08 M; IC50 (SK-OV-3): 3.55e-08 M
COc1c(C)cc2c(c1O)[C@@H]1C3Cc4c(OC(C)=O)c(C)c5c(c4[C@H](CNC(=O)Cc4ccccc4)N3[C@@H](O)[C@H](C2)N1C)OCO5 (stereo partly shown) [drawing 224]	–	–	–	–	–	–	–	–	–	–	–	–	–	3.97e-10	7.15e-09	1.13e-08	2.54e-09	–	–	7.46e-09	–
COc1c(C)cc2c(c1O)[C@@H]1C3Cc4c(OC(C)=O)c(C)c5c(c4[C@H](COC(=O)/C=C/c4cccc(C(F)(F)F)c4)N3[C@@H](O)[C@H](C2)N1C)OCO5 (stereo partly shown) [drawing 237]	–	–	–	–	–	–	–	–	–	–	–	–	–	–	8.86e-09	1.69e-08	1.44e-08	1.56e-07	1.56e-07	6.47e-08	IC50 (U-937): 7.6e-08 M
CCC(=O)NC[C@H]1c2c(c(OC(C)=O)c(C)c3c2OCO3)CC2[C@H]3c4c(cc(C)c(OC)c4O)C[C@@H]([C@H](O)N21)N3C (stereo partly shown) [drawing 227]	2.85e-09	1.36e-09	3.05e-08	1.63e-09	1.17e-09	–	3.08e-10	2.27e-09	1.37e-09	–	4.37e-09	–	9.91e-10	–	–	–	–	–	–	–	IC50 (LNCAP): 2.38e-08 M; IC50 (NCI-H187): 2.41e-11 M; IC50 (SK-OV-3): 2.9e-08 M
CCCCCC(=O)NC[C@H]1c2c(c(OC(C)=O)c(C)c3c2OCO3)CC2[C@H]3c4c(cc(C)c(OC)c4O)C[C@@H]([C@H](O)N21)N3C (stereo partly shown) [drawing 226]	1.15e-09	9.19e-09	1.39e-08	2.1e-09	1.08e-09	8.97e-09	–	1.72e-09	1e-09	9.32e-10	1.3e-09	9.41e-09	2.84e-10	–	–	–	–	–	–	–	–
